One series has as its target T1, human AGTR1 (Homo sapiens, UniProt P30556).
T1 construct: host or cells: HEK293 (HEK-AGTR1 FAP cells)
T1 sequence (P30556 1-359): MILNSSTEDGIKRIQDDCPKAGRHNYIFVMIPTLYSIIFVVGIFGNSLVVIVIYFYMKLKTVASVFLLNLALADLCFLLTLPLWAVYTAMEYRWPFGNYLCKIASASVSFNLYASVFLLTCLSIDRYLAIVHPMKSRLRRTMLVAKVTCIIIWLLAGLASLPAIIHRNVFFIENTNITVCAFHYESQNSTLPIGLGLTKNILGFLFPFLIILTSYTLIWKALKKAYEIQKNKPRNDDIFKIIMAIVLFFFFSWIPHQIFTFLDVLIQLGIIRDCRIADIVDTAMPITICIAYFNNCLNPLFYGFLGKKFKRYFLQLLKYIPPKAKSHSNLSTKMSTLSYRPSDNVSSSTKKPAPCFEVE
Briefly: AGTR1 signaling, IP-One Gq kit (IP1 accumulation), HEK-AGTR1 FAP cells. The note with it: 90 minutes. The series is classed as cell-based. How it is done: Activated AGTR1 couples to the Gαq subunit of heterotrimeric G proteins, which activates the phospholipase C (PLC) and subsequently inositol 1,4,5-trisphosphate (IP3) signaling cascade. AGTR1 signaling was measured using an IP-One Gq kit (cisbio #62IPAPEB). The kit detects the accumulation of inositol monophosphate (IP1), a stable downstream metabolite of IP3 induced by activation of a phospholipase C (PLC) cascade.
An additional control compound, AngII, which consists of the peptide motif […], was also tested. […] AGTR1 activation was measured using the IP-One Gq kit.

A further series deals with mouse MALAT RNA. Briefly: MALAT RNA reduction in vivo, C57BL6/J mice, with or without Losartan pretreatment. The note with it: no Losartan, sacrifice 4 days after dose. How it is done:
Compound Nos. 1213287 and 1295887 are described in Table 1 above. Compound Nos. 1213287 and 1295887 were tested in C57BL6/J mice with or without pretreatment with the AGTR1 antagonist, Losartan. The mice were divided into groups of 3 mice each. Mice receiving Losartan were treated with 150 mg/L in the drinking water for 10 days. Each mouse received a single IV dose on day 10 of either Compound No. 1213287 or 1295887 of either 1.2 or 3.6 μmol/kg. The mice were then sacrificed on day 14. Heart, adipose, adrenal, kidney, and liver tissue was then collected and homogenized and RNA analysis was performed. A group of 4 mice received PBS as a negative control.
RNA was extracted from heart, adipose, adrenal, kidney, and liver tissue for real-time PCR analysis of measurement of RNA expression of MALAT using primer probe set mMALAT1 #2 (forward sequence […] (SEQ ID NO: 5); reverse sequence […] (SEQ ID NO: 6); probe sequence […] (SEQ ID NO: 7)). Results are presented as percent change of RNA, relative to PBS control, normalized to mouse GAPDH.

Oligonucleotides are written 5' to 3', each unit as a sugar letter and its base; * is a phosphorothioate linkage, no mark a phosphodiester; rarer units and linkages stand in square brackets, end groups in braces. Plain capitals give the bases only. {Cy3} = Cy3 fluorescent dye label; k = constrained ethyl (cEt); [5mC] = 5-methylcytosine; d = 2'-deoxy (DNA)

For AngII, the IP1 accumulation is 1.183 µM at human AGTR1 (0.0256 nM); 2.569 µM at human AGTR1 (0.128 nM); 1.71 µM on human AGTR1 (0.64 nM); 4.465 µM on human AGTR1 (3.2 nM); 8.913 µM at human AGTR1 (16 nM); 15.383 µM on human AGTR1 (80 nM). The IP1 accumulation at human AGTR1 (400 nM) stood at 13.89 µM; at human AGTR1 (2000 nM), 14.825 µM.
As to “Compound No. 1213287: Control unconjugated 19-nucleotide modified oligonucleotide TCAGCATTCTAATAGCAGC with a 3′ Cy3 label (antisense dTd[5mC]dAkG*k[5mC]*kA*dT*dT*d[5mC]*dT*dA*dA*dT*dA*dG*d[5mC]*kA*kG*k[5mC]-{Cy3}) [reference compound]”, the “MALAT RNA (% control)” value in the series with mouse MALAT RNA (Adipose, single IV 1.2 μmol/kg) is 78.0 % control; in the series with mouse MALAT RNA (Adipose, single IV 3.6 μmol/kg) it was 53.0 % control; in the series with mouse MALAT RNA (Adrenal, single IV 1.2 μmol/kg) it was 78.7 % control; with mouse MALAT RNA (Adrenal, single IV 3.6 μmol/kg), 50.0 % control; in the series on mouse MALAT RNA (Heart, single IV 1.2 μmol/kg), 77.0 % control; in the series on mouse MALAT RNA (Heart, single IV 3.6 μmol/kg), 57.3 % control. Further, the “MALAT RNA (% control)” value in the series on mouse MALAT RNA (Kidney, single IV 1.2 μmol/kg) turned out to be 58.3 % control; in the series on mouse MALAT RNA (Kidney, single IV 3.6 μmol/kg), 42.3 % control; in the series on mouse MALAT RNA (Liver, single IV 1.2 μmol/kg), 53.7 % control; in the series on mouse MALAT RNA (Liver, single IV 3.6 μmol/kg) it was 35.0 % control.

Values taken from patent US20220243210A1, “ANGIOTENSIN II TYPE 1 RECEPTOR TARGETED OLIGONUCLEOTIDES AND USES THEREOF” (Ionis Pharmaceuticals, Inc., priority 2019, published 2022).
